From patent US12358915B2, “METTL3 inhibitory compounds” (STORM THERAPEUTICS LTD., priority 2019, dated 2025) come the findings set out here.

The target of assay [1] is T1, METTL3/14 (Homo sapiens, UniProt Q86U44).
T1 construct: The enzyme used was full-length his-tagged METTL3; His; made in house
Briefly: METTL3/14 methyltransferase assay (METTL3_14 RFMS, RapidFire mass spectrometry).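 Also: recombinant His-tagged METTL3 with FLAG-tagged METTL14 from baculovirus, SAH product quantified by mass spectrometry against isotope-labelled internal standards, 60 min at room temperature, scaled between no-RNA and DMSO-only wells.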 Conditions: read-out: METTL3_14 RFMS IC50. The assay is classed as biochemical.

Assay [2] has as its system MOLM-13 cells. The experiment in a line: MOLM13 CTG - analysis of cell proliferation (Cell Titre Glo). Particulars: Homo sapiens, geometric mean, read-out: CTG MOLM13 cells IC50 GEOMEAN. The class given is cell-based.
Description: MOLM-13 or MOLM-14 cells were plated, in suspension, in 24 well tissue culture plates at final concentration of 200,000/ml, with or without 50 ng/ml IFNγ. […] Cells were incubated for 4 days at 37° C. at which point 600 μl of cell suspension was removed for Mass spectrometry analysis of m6A. 600 μl of fresh media containing the appropriate concentration of METTL3 inhibitor/IFNγ was added to remaining cell suspensions. Cells where then cultured for a further 7 days, cell suspension was sampled for analysis of proliferation and Cell surface markers periodically.
At regular time points (4, 5, 6 &7) days cells were mixed to maintain a homogenous cell suspension. 25 μl of this cell suspension was removed and added to a white 384 well plate, 25 μl of Cell Titre Glo reagent (Promega) was added, and incubated for 10 mins at room temperature before measurement of luminescence intensity, as per the manufacturers instructions.
Setting [3] is: 5 nM METTL3/14, 0.2 μM RNA substrate, 0.5 μM SAM, lower limit of the assay IC50=5 nM, Compounds 266-351.
[4] abbreviates: 5 nM METTL3/14, 0.2 μM RNA substrate, 0.5 μM SAM, lower limit of the assay IC50=5 nM, Compounds 63-265.

SMILES strings stand for the structures. Where two headings read alike, the source gives them in different places.

T1 sequence (Q86U44 whole entry): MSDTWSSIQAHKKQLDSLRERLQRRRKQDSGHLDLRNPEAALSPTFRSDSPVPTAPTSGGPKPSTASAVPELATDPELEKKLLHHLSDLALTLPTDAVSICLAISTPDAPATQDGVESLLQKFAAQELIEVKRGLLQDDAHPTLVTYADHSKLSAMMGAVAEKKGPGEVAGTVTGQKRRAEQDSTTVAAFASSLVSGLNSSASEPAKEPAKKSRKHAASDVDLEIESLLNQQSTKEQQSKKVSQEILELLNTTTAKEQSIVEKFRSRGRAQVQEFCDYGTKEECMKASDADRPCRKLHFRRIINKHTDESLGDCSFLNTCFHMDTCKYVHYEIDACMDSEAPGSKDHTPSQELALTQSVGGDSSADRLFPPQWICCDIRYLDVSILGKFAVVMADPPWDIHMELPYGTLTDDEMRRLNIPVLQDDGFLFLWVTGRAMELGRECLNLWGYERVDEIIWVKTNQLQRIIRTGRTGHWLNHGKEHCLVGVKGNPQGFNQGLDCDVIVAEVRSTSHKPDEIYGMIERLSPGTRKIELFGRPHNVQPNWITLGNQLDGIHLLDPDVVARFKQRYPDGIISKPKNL
T1 sequence (Q9HCE5 whole entry partner): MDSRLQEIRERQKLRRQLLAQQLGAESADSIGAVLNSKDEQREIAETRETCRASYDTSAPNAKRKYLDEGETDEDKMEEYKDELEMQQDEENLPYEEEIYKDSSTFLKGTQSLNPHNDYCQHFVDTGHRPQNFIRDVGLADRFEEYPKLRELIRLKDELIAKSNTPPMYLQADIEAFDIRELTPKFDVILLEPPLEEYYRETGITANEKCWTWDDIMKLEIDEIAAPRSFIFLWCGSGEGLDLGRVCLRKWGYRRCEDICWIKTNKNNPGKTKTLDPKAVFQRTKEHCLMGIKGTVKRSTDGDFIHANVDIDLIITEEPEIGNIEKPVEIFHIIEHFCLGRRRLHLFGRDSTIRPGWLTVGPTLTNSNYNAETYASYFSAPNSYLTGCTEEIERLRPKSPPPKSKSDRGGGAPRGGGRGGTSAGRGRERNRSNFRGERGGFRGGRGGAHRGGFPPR

By IC50 is commonly meant the point on the concentration scale where inhibition reaches its midpoint. With `OC1(CNCc2ccc3nc(Cn4cc(-c5nccc6[nH]ncc56)nn4)cn3c2)CCC1` [Example 326, 1-[[[2-[[4-(1H-pyrazolo[4,3-c]pyridin-4-yl)triazol-1-yl]methyl]imidazo[1,2-a]pyridin-6-yl]methylamino]methyl]cyclobutanol], the IC50 in assay [1] (setting [3]) turned out to be 76.6 nM; in assay [2], 10.7 µM.

On to `N#CCC(NCC1CCC1)c1ccc2nc(CNC(=O)c3cc(=O)n4ccccc4n3)cn2c1` (stereo not drawn) [Example 330, N-[[6-[2-cyano-1-(cyclobutylmethylamino)ethyl]imidazo[1,2-a]pyridin-2-yl]methyl]-4-oxo-pyrido[1,2-a]pyrimidine-2-carboxamide], for which the IC50 in assay [1] (setting [3]) is 202 nM; in assay [2] it was at least 30 µM.

For the compound `NC(=O)c1cc(-c2cn(Cc3cn4cc(CNCC5CCC5)ccc4n3)nn2)c2cn[nH]c2c1` [Example 298, 4-[1-[[6-[(cyclobutylmethylamino)methyl]imidazo[1,2-a]pyridin-2-yl]methyl]triazol-4-yl]-1H-indazole-6-carboxamide], the IC50 in assay [1] (setting [3]) was 42.1 nM; in assay [2], at least 30 µM.

Take `Brc1cc(-c2cn(Cc3cn4cc(CNCC5CCC5)ccc4n3)nn2)c2cn[nH]c2c1` [Example 296, 1-[2-[[4-(6-bromo-1H-indazol-4-yl)triazol-1-yl]methyl]imidazo[1,2-a]pyridin-6-yl]-N-(cyclobutylmethyl)methanamine]: the half-maximal inhibitory concentration (IC50) in assay [1] is at most 4.44 nM; in assay [2], 0.362 µM.

Regarding `O=C(NCc1cn2cc(CNCCC3CCC3)ccc2n1)c1cc(=O)n2ccccc2n1` [Compound 286, N-[[6-[(2-cyclobutylethylamino)methyl]imidazo[1,2-a]pyridin-2-yl]methyl]-4-oxo-pyrido[1,2-a]pyrimidine-2-carboxamide], the IC50 was determined as 19.3 nM in assay [1] (setting [3]) and 12.3 µM in assay [2].

For the compound `c1cc2[nH]ncc2c(-c2cn(Cc3cn4cc(CNCC5CCCCC5)ccc4n3)nn2)n1` [Example 325, N-(cyclohexylmethyl)-1-[2-[[4-(1H-pyrazolo[4,3-c]pyridin-4-yl)triazol-1-yl]methyl]imidazo[1,2-a]pyridin-6-yl]methanamine], the IC50 in assay [1] (setting [3]) came out at 14.5 nM; in assay [2] it was 7.5 µM.

On to `CC(C)(NCc1ccc2nc(CNC(=O)c3cc(=O)n4ccccc4n3)cn2c1)c1ccccc1` [Compound 78, 4-oxo-N-[(6-{[(2-phenylpropan-2-yl)amino]methyl}imidazo[1,2-a]pyridin-2-yl)methyl]-4H-pyrido[1,2-a]pyrimidine-2-carboxamide], for which the concentration for half-maximal inhibition (IC50) in assay [1] (setting [4]) was 163 nM; in assay [2] it was 6.04 µM.

Consider `c1cc2[nH]ncc2c(-c2cn(Cc3cn4cc(CNCC5CCC5)ccc4n3)nn2)n1` [Example 324, N-(cyclobutylmethyl)-1-[2-[[4-(1H-pyrazolo[4,3-c]pyridin-4-yl)triazol-1-yl]methyl]imidazo[1,2-a]pyridin-6-yl]methanamine], for which the IC50 was determined as 8.86 nM in assay [1] (setting [3]) and 3.28 µM in assay [2].

As to `OC1(CNCc2ccc3nc(Cn4cc(-c5ccc(F)c6[nH]ncc56)nn4)cn3c2)CCCCC1` [Example 306, 1-[[[2-[[4-(7-fluoro-1H-indazol-4-yl)triazol-1-yl]methyl]imidazo[1,2-a]pyridin-6-yl]methylamino]methyl]cyclohexanol], the figures for the IC50 in assay [1] (setting [3]) and in assay [2] were 9.46 nM and 3.93 µM, respectively.

As for `Fc1ccc(-c2cn(Cc3cn4cc(CNCC5CCC5)ccc4n3)nn2)c2cn[nH]c12` [Example 305, N-(cyclobutylmethyl)-1-[2-[[4-(7-fluoro-1H-indazol-4-yl)triazol-1-yl]methyl]imidazo[1,2-a]pyridin-6-yl]methanamine], the results for the IC50 in assay [1] (setting [3]) and in assay [2] were 6.01 nM and 1.83 µM, respectively.

Take `O=C(NCc1cn2cc(CNCc3ccccc3)ccc2n1)c1cccc2[nH]ncc12` [Compound 178, N-({6-[(benzylamino)methyl]imidazo [1,2-a]pyridin-2-yl}methyl)-1H-indazole-4-carboxamide]: the IC50 in assay [1] (setting [4]) was 209 nM; in assay [2], 9.89 µM.

In the case of `O=C(NCc1cn2cc(CNCC3CCC3F)ccc2n1)c1cc(=O)n2ccccc2n1` (stereo not drawn) [Compound 214, N-{[6-({[(2-fluorocyclobutyl)methyl]amino}methyl)imidazo [1,2-a]pyridin-2-yl]methyl}-4-oxo-4H-pyrido [1,2-a]pyrimidine-2-carboxamide], the IC50 in assay [1] (setting [4]) came to 15.8 nM; in assay [2] it was 7.34 µM.

As to `CCCCNCc1ccc2nc(CNC(=O)c3cc(=O)n4ccccc4n3)cn2c1` [Compound 283, N-[[6-(butylaminomethyl)imidazo[1,2-a]pyridin-2-yl]methyl]-4-oxo-pyrido[1,2-a]pyrimidine-2-carboxamide], the IC50 in assay [1] (setting [3]) was 29.3 nM; in assay [2], 10.7 µM.

Turning to `O=C(NCc1cn2cc(CNCC3CC4(CC4)C3)ccc2n1)c1cc(=O)n2ccccc2n1` [Compound 278, 4-oxo-N-[[6-[(spiro[2.3]hexan-5-ylmethylamino)methyl]imidazo[1,2-a]pyridin-2-yl]methyl]pyrido[1,2-a]pyrimidine-2-carboxamide], the IC50 in assay [1] (setting [3]) is 27.6 nM; in assay [2] it was at least 30 µM.

Regarding `CC1(F)CCN(Cc2ccc3nc(CNC(=O)c4cc(=O)n5ccccc5n4)cn3c2)CC1` [Compound 207, N-({6-[(4-fluoro-4-methylpiperidin-1-yl)methyl]imidazo[1,2-a]pyridin-2-yl}methyl)-4-oxo-4H-pyrido [1,2-a]pyrimidine-2-carboxamide], the IC50 turned out to be 37.9 nM in assay [1] (setting [4]) and 10.2 µM in assay [2].

Turning to `Brc1cc(-c2cn(Cc3cn4cc(CNCC5CCCCC5)ccc4n3)nn2)c2cn[nH]c2c1` [Example 226, [(2-{[4-(6-bromo-1H-indazol-4-yl)-1H-1,2,3-triazol-1-yl]methyl}imidazo[1,2-a]pyridin-6-yl)methyl](cyclohexylmethyl)amine], the IC50 in assay [1] (setting [4]) was found to be 8.14 nM; in assay [2], 1.48 µM.

As to `OC1(CNCc2ccc3nc(Cn4cc(-c5cccc6[nH]ncc56)nn4)cn3c2)CCCCC1` [Example 328, 1-[[[2-[[4-(1H-indazol-4-yl)triazol-1-yl]methyl]imidazo[1,2-a]pyridin-6-yl]methylamino]methyl]cyclohexanol], the IC50 in assay [1] (setting [3]) came out at 8.84 nM; in assay [2], 3.25 µM.

For `OC1(CNCc2ccc3nc(Cn4cc(-c5cc(Cl)cc6[nH]ncc56)nn4)cn3c2)CCC1` [Example 303, 1-[[[2-[[4-(6-chloro-1H-indazol-4-yl)triazol-1-yl]methyl]imidazo[1,2-a]pyridin-6-yl]methylamino]methyl]cyclobutanol], the IC50 in assay [1] (setting [3]) came to 5.92 nM; in assay [2] it was 1.44 µM.

As for `CCC(C)(C)CNCc1ccc2nc(CNC(=O)c3cc(=O)n4ccccc4n3)cn2c1` [Compound 292, N-[[6-[(2,2-dimethylbutylamino)methyl]imidazo[1,2-a]pyridin-2-yl]methyl]-4-oxo-pyrido[1,2-a]pyrimidine-2-carboxamide], the IC50 in assay [1] (setting [3]) is 20 nM; in assay [2], 7.19 µM.

As for `CC1(C)CCN(Cc2ccc3nc(CNC(=O)c4cc(=O)n5ccccc5n4)cn3c2)CC1` [Compound 193, N-({6-[(4,4-dimethylpiperidin-1-yl)methyl]imidazo[1,2-a]pyridin-2-yl}methyl)-4-oxo-4H-pyrido[1,2-a]pyrimidine-2-carboxamide], the values for the IC50 in assay [1] (setting [4]) and in assay [2] were 12.4 nM and 2.46 µM, respectively.

On to `CC(C)(C)CNCc1ccc2nc(Cn3cc(-c4ccc5[nH]ncc5c4)nn3)cn2c1` [Example 254, (2,2-dimethylpropyl)[(2-{[4-(1H-indazol-5-yl)-1H-1,2,3-triazol-1-yl]methyl}imidazo[1,2-a]pyridin-6-yl)methyl]amine], for which the IC50 in assay [1] was 10100 nM; in assay [2] it was at least 30 µM.

In the case of `CC1CC(CNCc2ccc3nc(CNC(=O)c4cc(=O)n5ccccc5n4)cn3c2)C1` (stereo not drawn) [Compound 290, N-[[6-[[(3-methylcyclobutyl)methylamino]methyl]imidazo[1,2-a]pyridin-2-yl]methyl]-4-oxo-pyrido[1,2-a]pyrimidine-2-carboxamide], the IC50 amounted to 18 nM in assay [1] (setting [3]) and 6.98 µM in assay [2].

With `O=C(NCc1cn2cc(CNC[C@H]3C[C@H](F)C3)ccc2n1)c1cc(=O)n2ccccc2n1` [Compound 217, 4-oxo-N-({6-[({[(1r,3r)-3-fluorocyclo-butyl]methyl}amino)methyl]imidazo[1,2-a]pyridin-2-yl}methyl)-4H-pyrido[1,2-a] pyrimidine-2-carboxamide], the IC50 was determined as 7.58 nM in assay [1] (setting [4]) and 2.93 µM in assay [2].

`OC1(CNCc2ccc3nc(Cn4cc(-c5cc(Br)cc6[nH]ncc56)nn4)cn3c2)CCCCC1` [Example 294, 1-[[[2-[[4-(6-bromo-1H-indazol-4-yl)triazol-1-yl]methyl]imidazo[1,2-a]pyridin-6-yl]methylamino]methyl]cyclohexanol]: the IC50 is 5.8 nM in assay [1] (setting [3]) and 0.998 µM in assay [2].

In the case of `O=C(NCc1cn2cc(C(Cc3ccccc3)NCC3CCC3)ccc2n1)c1cc(=O)n2ccccc2n1` (stereo not drawn) [Example 313, N-[[6-[1-(cyclobutylmethylamino)-2-phenyl-ethyl]imidazo[1,2-a]pyridin-2-yl]methyl]-4-oxo-pyrido[1,2-a]pyrimidine-2-carboxamide], the IC50 in assay [1] (setting [3]) amounted to 37.6 nM; in assay [2], 11.3 µM.

For the compound `O=C(O)c1cc(-c2cn(Cc3cn4cc(CNCC5CCC5)ccc4n3)nn2)c2cn[nH]c2c1` [Example 297, 4-[1-[[6-[(cyclobutylmethylamino)methyl]imidazo[1,2-a]pyridin-2-yl]methyl]triazol-4-yl]-1H-indazole-6-carboxylic acid], the IC50 in assay [1] (setting [3]) was 737 nM; in assay [2], at least 30 µM.

In the case of `O=C(NCc1cn2cc(CCNCc3ccccc3)ccc2n1)c1cc(=O)n2ccccc2n1` [Compound 235, N-({6-[2-(benzylamino)ethyl]imidazo[1,2-a]pyridin-2-yl}methyl)-4-oxo-4H-pyrido[1,2-a]pyrimidine-2-carboxamide], the values for the IC50 in assay [1] (setting [4]) and in assay [2] were 111 nM and at least 30 µM, respectively.
